Source: patent US20080039444A1, “COMPOUNDS” (GLAXO GROUP LIMITED, priority 2006, published 2008)

Columns and labels:
[1] = test system: histamine-induced nasal congestion; test: Intranasal challenge method: whole body plethysmography, histamine-induced nasal congestion; assay type: in vivo, guinea pig; conditions: 24 hours after dosing, compared to azelastine; intranasal 1 mg/ml (FIG. 3, Example 24D)
Description: FIG. 3: depicts the duration of 4-[(4-chlorophenyl)methyl]-2-({(2R)-1-[4-(4-{[3-(hexahydro-1H-azepin-1-yl)propyl]oxy}phenyl)butyl]-2-pyrrolidinyl}methyl)-1(2H)-phthalazinone, dihydrochloride salt (Example 24D) and azelastine in a conscious Guinea-Pig model of histamine-induced nasal congestion. Animals were exposed to histamine at the time indicated after an intranasal dose of 1 mg/ml of compound. Mean ±s.e. mean (n=6-10 per group).
Intranasal Challenge Method: Whole Body Plethysmography
Female Dunkin-Hartley guinea pigs 150-250 g are sensitised twice daily for 5 days (week 1) with ovalbumin (OVA) and aluminium hydroxide (AI(OH)3 or Alum) in physiological saline, 25 μl/nostril. Solution is made up at 20 μg/ml OVA, 180 mg/ml Alum. During weeks 2 and 3, animals receive 25 μl/nostril of OVA (5 mg/ml) once daily. […]
Pretreatment with test compound is performed at various times prior to histamine challenge. Efficacy dose-response curves are determined 1 h after dosing whereas duration of action is studied up to 7 days post dose. […]
After the stipulated pre-dose time has been reached, guinea pigs are re-anaesthetised with isoflurane and dosed with either 15 mM histamine or phosphate-buffered saline (PBS), (25 μl per nostril). […] Data are analysed using ANOVA with post-hoc Fishers LSD test (general linear models, Statistica®) and finally Hochberg adjustment. […]

[2] = CNS penetration (intravenous bolus or infusion at steady state, blood and brain levels); assay type: in vivo, rat; conditions: male CD Sprague Dawley rats
Description: (i) CNS penetration by bolus administration
Compounds are dosed intravenously at a nominal dose level of 1 mg/kg to male CD Sprague Dawley rats. Compounds are formulated in 5% DMSO/45% PEG200/50% water. Blood samples are taken under terminal anaesthesia with isoflurane at 5 min post-dose and the brains are also removed for assessment of brain penetration. Blood samples are taken directly into heparinised tubes. Blood samples are prepared for analysis using protein precipitation and brain samples are prepared using extraction of drug from brain by homogenisation and subsequent protein precipitation. The concentration of parent drug in blood and brain extracts is determined by quantitative LC-MS/MS analysis using compound-specific mass transitions.
(ii) CNS penetration following intravenous infusion at steady state
A loading dose of the compounds is given to male CD Sprague Dawley rats at a nominal dose level of 0.4 mg/kg. The compounds are then infused intravenously for 4 h at a nominal dose level of 0.1 mg/kg/h. Compounds are formulated in 2% DMSO/30% PEG200/68% water. Serial or terminal blood samples are taken at 0.5, 1.5, 2.5, 3, 3.5 and 4 h post dose. The final blood sample is collected under terminal anaesthesia with isoflurane and the brains are also removed for assessment of brain penetration. Blood samples are taken directly into heparinised tubes. Blood samples are prepared for analysis using protein precipitation and brain samples are prepared using extraction of drug from brain by homogenisation and subsequent protein precipitation. The concentration of parent drug in blood and brain extracts is determined by quantitative LC-MS/MS analysis using compound-specific mass transitions.

human H1 receptor = target: T1, human H1 receptor (Homo sapiens, UniProt P35367); test: Histamine H1 functional antagonist assay (FLIPR): determination of functional pKi values; assay type: cell-based; conditions: CHO cells expressing human H1, histamine at EC80; read-out: average pKi (pKb) at H1 (converted)
T1 construct: expressed in transfected cells
T1 sequence (P35367 whole entry): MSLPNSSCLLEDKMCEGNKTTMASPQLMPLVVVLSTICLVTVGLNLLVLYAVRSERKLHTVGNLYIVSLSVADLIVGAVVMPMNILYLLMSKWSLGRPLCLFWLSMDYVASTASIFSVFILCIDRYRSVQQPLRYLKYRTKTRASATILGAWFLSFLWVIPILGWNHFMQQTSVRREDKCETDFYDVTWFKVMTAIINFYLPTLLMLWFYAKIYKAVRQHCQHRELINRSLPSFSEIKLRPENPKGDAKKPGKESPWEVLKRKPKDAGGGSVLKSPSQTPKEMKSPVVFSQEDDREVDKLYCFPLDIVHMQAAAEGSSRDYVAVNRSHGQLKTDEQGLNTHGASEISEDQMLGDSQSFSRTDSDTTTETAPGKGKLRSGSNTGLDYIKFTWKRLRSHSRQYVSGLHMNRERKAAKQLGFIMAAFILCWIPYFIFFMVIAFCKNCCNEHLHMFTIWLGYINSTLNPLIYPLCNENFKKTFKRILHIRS
Source text: H1 receptor cell line generation and FLIPR assay protocol
1. Generation of histamine H1 cell line
The human H1 receptor is cloned using known procedures described in the literature [Biochem. Biophys. Res. Commun., 201(2):894 (1994)]. Chinese hamster ovary (CHO) cells stably expressing the human H1 receptor are generated according to known procedures described in the literature [Br. J. Pharmacol., 117(6):1071 (1996)].
Histamine H1 functional antagonist assay: Determination of functional pKi values […]
10 μl of test compound, diluted to the required concentration in Tyrodes buffer+probenecid (or 10 μl Tyrodes buffer+probenecid as a control) is added to each well and the plate is incubated for 30 min at 37° C., 5% CO2. The plates are then placed into a FLIPR™ (Molecular Devices, UK) to monitor cell fluorescence (λex=488 nm, αEM=540 nm) in the manner described in Sullivan et al., (In: Lambert DG (ed.), Calcium Signaling Protocols, New Jersey: Humana Press, 1999, 125-136) before and after the addition of 10 μl histamine at a concentration that results in the final assay concentration of histamine being EC80.
Functional antagonism is indicated by a suppression of histamine induced increase in fluorescence, as measured by the FLIPR™ system (Molecular Devices). By means of concentration effect curves, functional affinities are determined using standard pharmacological mathematical analysis.

In the case of `O=c1c2ccccc2c(Cc2ccc(Cl)cc2)nn1C[C@H]1CCCN1CCCCc1ccc(OCCCN2CCCCCC2)cc1` [Example 24, 4-[(4-Chlorophenyl)methyl]-2-({(2R)-1-[4-(4-{[3-(hexahydro-1H-azepin-1-yl)propyl]oxy}phenyl)butyl]-2-pyrrolidinyl}methyl)-1(2H)-phthalazinone free base], the “inhibition of nasal congestion in the Guinea Pig whole body plethysmography model” value [1] is reported as “statistically significant inhibition of nasal congestion”, the “CNS penetration compared with azelastine” value [2] is reported as “lower CNS penetration than azelastine” and the Ki (human H1 receptor) is reported as about 15.8 nM.
